Measurements reported in EP0378255B1, “2-Aminopyrimidinone derivatives” (JANSSEN PHARMACEUTICA N.V., priority 1989, dated 1990).
Where two headings read alike, the source gives them in different places.

Tests used:
Assay type in all cases: in vivo
[1] = test system: compound 48/80; assay: Gastric Lesions induced by compound 48/80 in rats (serotonin antagonism); settings: Rattus norvegicus, read-out: Compound 48/80 tests ED₅₀ values Gastric lesions
Protocol: (§1) Int. Pharmacodyn. Ther., 227, 238-253, 1977. Further the activity of the subject compounds as serotonin antagonists is evidenced by the experimental data obtained in the "Gastric Lesions induced by compound 48/80 in rats" test, described in U.S.-4,335,127. […] All tests were carried out following the procedures described in the cited references and the experimental data are shown in Table 8.

[2] = test system: Norepinephrine; assay: Combined Apomorphine, Tryptamine and Norepinephrine (ATN) test in rats: norepinephrine part; settings: Rattus norvegicus; read-out: Combined ATN test in rats ED₅₀ values (NOR)
Protocol: as §1

[3] = test system: Apomorphine; assay: Combined Apomorphine, Tryptamine and Norepinephrine (ATN) test in rats: apomorphine part; settings: Rattus norvegicus; read-out: Combined ATN test in rats ED₅₀ values (APO)
[4] = test system: Tryptamine; assay: Combined Apomorphine, Tryptamine and Norepinephrine (ATN) test in rats: tryptamine part; settings: Rattus norvegicus
[5] = test system: Wistar rats; assay: Sleep-wakefulness patterns in the rat (polygraphic EEG/EOG/EMG recording); settings: for MEAN DURATION OF EPISODES PS / MEAN DURATION OF EPISODES SWS1 / MEAN DURATION OF EPISODES SWS2 / MEAN DURATION OF EPISODES W / NUMBER OF EPISODES PS / NUMBER OF EPISODES SWS1 / NUMBER OF EPISODES SWS2 / NUMBER OF EPISODES W: means ± SEM of 10 rats
Protocol: Under pentobarbital anesthesia (50 mg/kg i.p.) 10 adult male Wistar rats weighing 240 to 260 g were chronically implanted for standard polygraphic recording of electroencephalogram (EEG), electro-oculogram (EOG) and electromyogram (EMG). After a 8-10 day recovery period from surgery and habituation to the recording conditions ( 12 h light-dark schedule, light on at 9:00 am.), pharmacological tests were started. The animals received 0.04, 0.16 or 0.63 mg/kg of compound 39 dissolved in 1 mM tartaric acid and injected i.p. at the onset of the light period. A minimum of 3 recovery days was allowed between two treatments. Polygraphic recordings were scored visually and classified as being either wakefulness (W), light slow wave sleep (SWS1), deep slow wave sleep (SWS2) or paradoxical sleep (PS). Sleep-wakefulness parameters were analyzed for each of the two successive 4 h periods following the treatment and compared to baseline (vehicle injection under the same conditions). The amounts of sleep and wakefulness states were expressed as percentage of baseline recordings which represented means of two baseline values per animal. Statistical tests were performed by means of the two-tailed Student t-test.

[6] = test system: compound 48/80; assay: Protection of Rats from compound 48/80 induced lethality (antihistaminic activity); settings: Rattus norvegicus, read-out: Compound 48/80 tests ED₅₀ values Lethality
Protocol: as §1

[7] = convulsions, read-out: Combined ATN test in rats ED₅₀ values (TRY) convulsions
[8] = hyperaemia, read-out: Combined ATN test in rats ED₅₀ values (TRY) hyperaemia
[9] = 0-4h after treatment, 0.04 mg/kg i.p.
[10] = 0-4h after treatment, 0.16 mg/kg i.p.
[11] = 0-4h after treatment, 0.63 mg/kg i.p.
[12] = 4-8h after treatment, 0.04 mg/kg i.p.
[13] = 4-8h after treatment, 0.16 mg/kg i.p.
[14] = 4-8h after treatment, 0.63 mg/kg i.p.

SMILES: Cc1nc(NCc2ccccn2)n(C)c(=O)c1CCN1CCC(c2noc3cc(F)ccc23)CC1 [Compound 19]
- ED50 [1]: 0.04 mg/kg
- ED50 [2]: 0.08 mg/kg
- ED50 [3]: 0.08 mg/kg
- ED50 [4, 7]: 0.31 mg/kg
- ED50 [4, 8]: 0.0025 mg/kg

SMILES: CC(=O)Nc1nc(C)c(CCN2CCC(C(=O)c3ccc(F)cc3)CC2)c(=O)n1C [Compound 34]
- ED50 [1]: 0.04 mg/kg
- ED50 [2]: 1.25 mg/kg
- ED50 [3]: 0.31 mg/kg
- ED50 [4, 7]: 0.31 mg/kg
- ED50 [4, 8]: 0.005 mg/kg

SMILES: CNc1nc(C)c(CCN2CCC(=C(c3ccc(F)cc3)c3ccc(F)cc3)CC2)c(=O)n1C [Compound 39, 5-[2-[4-[bis(4-fluorophenyl)methylene]-1-piperidinyl]ethyl]-3,6-dimethyl-2-(methylamino)-4(3H)-pyrimidinone]
- MEAN DURATION OF EPISODES PS [5, 9]: 2.1 ± 0.2 min
- MEAN DURATION OF EPISODES SWS1 [5, 9]: 0.8 ± 0.0 min
- MEAN DURATION OF EPISODES SWS2 [5, 9]: 4.7 ± 0.5 min
- MEAN DURATION OF EPISODES W [5, 9]: 2.6 ± 0.3 min
- NUMBER OF EPISODES PS [5, 9]: 4±1
- NUMBER OF EPISODES SWS1 [5, 9]: 33±3
- NUMBER OF EPISODES SWS2 [5, 9]: 32±3
- NUMBER OF EPISODES W [5, 9]: 26±3
- MEAN DURATION OF EPISODES PS [5, 10]: 2.0 ± 0.3 min
- MEAN DURATION OF EPISODES SWS1 [5, 10]: 0.9 ± 0.0 min
- MEAN DURATION OF EPISODES SWS2 [5, 10]: 5.8 ± 0.5 min
- MEAN DURATION OF EPISODES W [5, 10]: 2.9 ± 0.3 min
- NUMBER OF EPISODES PS [5, 10]: 3±1
- NUMBER OF EPISODES SWS1 [5, 10]: 28±2
- NUMBER OF EPISODES SWS2 [5, 10]: 27±2
- NUMBER OF EPISODES W [5, 10]: 23±1
- MEAN DURATION OF EPISODES PS [5, 11]: 2.2 ± 0.4 min
- MEAN DURATION OF EPISODES SWS1 [5, 11]: 0.8 ± 0.0 min
- MEAN DURATION OF EPISODES SWS2 [5, 11]: 5.9 ± 0.4 min
- MEAN DURATION OF EPISODES W [5, 11]: 2.7 ± 0.2 min
- NUMBER OF EPISODES PS [5, 11]: 3±1
- NUMBER OF EPISODES SWS1 [5, 11]: 26±2
- NUMBER OF EPISODES SWS2 [5, 11]: 27±2
- NUMBER OF EPISODES W [5, 11]: 22±1
- doses giving significant effects ([5]; 0.04, 0.16 or 0.63 mg/kg i.p., two-tailed Student t-test): Significant effects were observed from the lowest dose upwards
- dose-related response ([5]; 0.04 to 0.63 mg/kg i.p.): a clear dose-related response was obtained
- sleep-wakefulness changes (SWS2, W, SWS1, PS) ([5]; 0.04 to 0.63 mg/kg i.p. at the onset of the light period, 8 h recording period): dose-dependent increase of SWS2 combined with a dose-related deficit in W, SWS1 and PS
- SWS2 episodes: duration and number ([5]; 0.04 to 0.63 mg/kg i.p., summary of Table 7): marked prolongation of SWS2 episodes, whereas the number of episodes was reduced
- MEAN DURATION OF EPISODES PS [5, 12]: 1.9 ± 0.1 min
- MEAN DURATION OF EPISODES SWS1 [5, 12]: 0.7 ± 0.0 min
- MEAN DURATION OF EPISODES SWS2 [5, 12]: 3.5 ± 0.2 min
- MEAN DURATION OF EPISODES W [5, 12]: 2.0 ± 0.2 min
- NUMBER OF EPISODES PS [5, 12]: 13±1
- NUMBER OF EPISODES SWS1 [5, 12]: 35±3
- NUMBER OF EPISODES SWS2 [5, 12]: 41±3
- NUMBER OF EPISODES W [5, 12]: 26±2
- MEAN DURATION OF EPISODES PS [5, 13]: 2.1 ± 0.1 min
- MEAN DURATION OF EPISODES SWS1 [5, 13]: 0.7 ± 0.0 min
- MEAN DURATION OF EPISODES SWS2 [5, 13]: 3.9 ± 0.3 min
- MEAN DURATION OF EPISODES W [5, 13]: 2.0 ± 0.3 min
- NUMBER OF EPISODES PS [5, 13]: 12±1
- NUMBER OF EPISODES SWS1 [5, 13]: 35±2
- NUMBER OF EPISODES SWS2 [5, 13]: 39±2
- NUMBER OF EPISODES W [5, 13]: 23±2
- MEAN DURATION OF EPISODES PS [5, 14]: 2.1 ± 0.1 min
- MEAN DURATION OF EPISODES SWS1 [5, 14]: 0.7 ± 0.0 min
- MEAN DURATION OF EPISODES SWS2 [5, 14]: 3.7 ± 0.2 min
- MEAN DURATION OF EPISODES W [5, 14]: 1.9 ± 0.2 min
- NUMBER OF EPISODES PS [5, 14]: 12±1
- NUMBER OF EPISODES SWS1 [5, 14]: 34±2
- NUMBER OF EPISODES SWS2 [5, 14]: 40±2
- NUMBER OF EPISODES W [5, 14]: 26±2
- effective dose, lower than that of ritanserin by ([5]; comparison with ritanserin): 10 fold
- sleep-wakefulness response ([5]; doses of 0.04 and 0.16 mg/kg i.p.): significant sleep-wakefulness response

SMILES: CCNc1nc(C)c(CCN2CCN(c3noc4ccccc34)CC2)c(=O)n1C [Compound 69]
- ED50 [1]: 0.00125 mg/kg
- ED50 [2]: 0.31 mg/kg
- ED50 [6]: 0.02 mg/kg
- ED50 [3]: 0.08 mg/kg
- ED50 [4, 7]: 0.31 mg/kg
- ED50 [4, 8]: 0.00125 mg/kg

SMILES: CCCNc1nc(C)c(CCN2CCN(c3nsc4ccccc34)CC2)c(=O)n1C [Compound 71]
- ED50 [1]: 0.63 mg/kg
- ED50 [2]: 1.25 mg/kg
- ED50 [6]: 0.16 mg/kg
- ED50 [3]: 0.08 mg/kg
- ED50 [4, 7]: 0.08 mg/kg
- ED50 [4, 8]: 0.005 mg/kg

SMILES: Cc1nc2n(C)ccn2c(=O)c1CCN1CCC(c2noc3cc(F)ccc23)CC1 [Compound 77]
- ED50 [1]: 0.04 mg/kg
- ED50 [2]: 0.16 mg/kg
- ED50 [6]: 0.005 mg/kg
- ED50 [3]: 0.04 mg/kg
- ED50 [4, 7]: 0.04 mg/kg
- ED50 [4, 8]: ≤ 0.00063 mg/kg

SMILES: Cc1nc2n(c(=O)c1CCN1CCC(c3noc4cc(F)ccc34)CC1)CCN2C [Compound 80]
- ED50 [1]: 0.04 mg/kg
- ED50 [2]: 0.31 mg/kg
- ED50 [6]: 0.005 mg/kg
- ED50 [3]: 0.08 mg/kg
- ED50 [4, 7]: 0.08 mg/kg
- ED50 [4, 8]: 0.00125 mg/kg

SMILES: CC1=NN(C)c2nc(C)c(CCN3CCC(c4noc5cc(F)ccc45)CC3)c(=O)n2C1 [Compound 86]
- ED50 [1]: 0.02 mg/kg
- ED50 [2]: 0.08 mg/kg
- ED50 [3]: 0.04 mg/kg
- ED50 [4, 7]: 0.04 mg/kg
- ED50 [4, 8]: 0.00125 mg/kg

SMILES: Cc1nc2n(C)nc(C)n2c(=O)c1CCN1CCC(c2noc3cc(F)ccc23)CC1 [Compound 88]
- ED50 [1]: 0.04 mg/kg
- ED50 [2]: 0.16 mg/kg
- ED50 [3]: 0.08 mg/kg
- ED50 [4, 7]: 0.08 mg/kg
- ED50 [4, 8]: 0.00125 mg/kg
